Experiments:
[1] = Liver microsome stability assay (MLM); assay type: in vitro ADME; details: mouse liver microsomes
Protocol: A microsomal mixture (microsomes and Kphos buffer) was prepared at a concentration of 1.428 mg/mL in 2 mL tubes. To this microsomal mixture 1.6 μL (1 mM) of test compound and positive control were spiked; from this mixture, 70 μL was transferred to 96 well plate and pre-incubated at 37° C. for 5 min. After pre-incubation, the zero minute time point reaction was stopped using 100 μL of ice-cold acetonitrile containing internal standard and […] (3.33 mM in Kphos buffer) was added. The 45 minute time point reaction was initiated by addition of 30 μL of NADPH (3.33 mM in Kphos buffer) and incubated at 37° C. for 15 and 45 min. Reactions without NADPH and buffer controls (minus NADPH) at 0, 15, and 45 minutes were also incubated to rule out non-NADPH metabolism or chemical instability in the incubation buffer. Incubation reactions were stopped with 100 μL of ice-cold acetonitrile containing internal standard. The plates were centrifuged at 4000 RPM for 15 min and 100 μL aliquots were submitted for analysis by LC-MS/MS. (Verapamil in human liver microsomes (HLM) and rat liver microsomes (RLM) was used as positive controls. Imipramine in mouse liver microsomes (MLM) was used as a positive control.) Samples were monitored for parent compound disappearance in MRM mode (multiple reaction monitoring) using LC-MS/MS. The peak area ratios of analyte versus internal standard were used to calculate the % remaining at the end of 45 minutes in the presence of NADPH.

15-PGDH/HPGD = 15-PGDH/HPGD (Homo sapiens (Human), UniProt P15428); experiment: hPGDH inhibitor screening biochemical assay; details: read-out: hPGDH: Average IC50
Chain of 15-PGDH/HPGD (P15428 whole entry): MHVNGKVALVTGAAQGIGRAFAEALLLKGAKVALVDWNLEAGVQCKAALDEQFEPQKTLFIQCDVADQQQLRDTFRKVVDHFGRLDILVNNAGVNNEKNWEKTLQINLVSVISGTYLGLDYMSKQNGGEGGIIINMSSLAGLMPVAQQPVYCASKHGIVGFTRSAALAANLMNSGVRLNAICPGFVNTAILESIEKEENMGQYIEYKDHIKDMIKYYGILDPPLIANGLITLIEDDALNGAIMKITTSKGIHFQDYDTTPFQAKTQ
How it was run: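 Recombinant human 15-PGDH (10 nM) pre-incubated with compounds 10 min at 37 °C, then 15 μM PGE2 and 0.25 mM NAD+ added for 10 min at room temperature in 50 mM Tris-HCl pH 7.5, 0.01% Tween 20. NADH fluorescence read at ex/em 340/485 nm. IC50 from 10-point curves, four-parameter fit versus 1% DMSO.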

| MLM + NADPH (% remaining at 45 min) [1] | IC50 (15-PGDH/HPGD) | SMILES |
| --- | --- | --- |
| 0% | < 100 nM | O=C(Nc1cc(C2CC2)[nH]n1)c1cccc(-n2ccc3cc(C(=O)N4CCC(F)(F)CC4)cnc32)c1 [MF-DH-498, N-(5-cyclopropyl-1H-pyrazol-3-yl)-3-(5-(4,4-difluoropiperidine-1-carbonyl)-1H-pyrrolo[2,3-b]pyridin-1-yl)benzamide] |
| 94% | < 100 nM | O=C(NCCO)c1ccc(-n2ccc3cc(C(=O)N4CCC(F)(F)CC4)cnc32)cc1 [MF-DH-413] |
| 97% | < 100 nM | O=C(NC1(C(=O)O)CC1)c1ccc(-n2ccc3cc(C(=O)N4CCC(F)(F)CC4)cnc32)cc1 [MF-DH-429] |
| 87% | < 100 nM | NCCNC(=O)c1ccc(-n2ccc3cc(C(=O)N4CCC(F)(F)CC4)cnc32)cc1 [MF-DH-411, N-(2-aminoethyl)-4-(5-(4,4-difluoropiperidine-1-carbonyl)-1H-pyrrolo[2,3-b]pyridin-1-yl)benzamide] |
| 88% | < 100 nM | O=C(c1cnc2c(ccn2-c2cncc(-c3nc[nH]n3)c2)c1)N1CCC(F)(F)CC1 [MF-DH-516, (1-(5-(1H-1,2,4-triazol-3-yl)pyridin-3-yl)-1H-pyrrolo[2,3-b]pyridin-5-yl)(4,4-difluoropiperidin-1-yl)methanone] |
| 103% | < 100 nM | NC(=O)c1cncc(-n2cc(Cl)c3cc(C(=O)N4CCC(F)(F)CC4)cnc32)c1 [MF-DH-482] |
| 99% | < 100 nM | Cc1nc(-c2ccc(-n3ccc4cc(C(=O)N5CCC(F)(F)CC5)cnc43)cn2)no1 [MF-DH-471, (4,4-difluoropiperidin-1-yl)(1-(6-(5-methyl-1,2,4-oxadiazol-3-yl)pyridin-3-yl)-1H-pyrrolo[2,3-b]pyridin-5-yl)methanone] |
| 37% | < 100 nM | O=C(c1cnc2c(ccn2-c2cc(Cl)cc(C(=O)N3CCS(=O)(=O)CC3)c2)c1)N1CCC(F)(F)CC1 |
| 6% | < 100 nM | N/C(=N\O)c1ccc(-n2ccc3cc(C(=O)N4CCCCC4)cnc32)cc1 [MF-DH-399] |
| 97% | < 100 nM | O=C(NC(CO)CO)c1ccc(-n2ccc3cc(C(=O)N4CCC(F)(F)CC4)cnc32)cc1 [MF-DH-412] |
| 4% | < 100 nM | O=C(c1cnc2c(ccn2-c2ccc3[nH]ncc3c2)c1)N1CCC(F)(F)CC1 [MF-DH-396] |
| 94% | < 100 nM | O=C(O)c1ccc(-n2ccc3cc(C(=O)N4CCC(F)(F)CC4)cnc32)cn1 [MF-DH-434, 5-(5-(4,4-difluoropiperidine-1-carbonyl)-1H-pyrrolo[2,3-b]pyridin-1-yl)picolinic acid] |
| 41% | < 100 nM | NC(=O)c1ccc(-n2ccc3cc(C(=O)N4CCCCC4)cnc32)cn1 [MF-DH-365] |
| 78% | < 100 nM | CS(=O)(=O)NCCNC(=O)c1ccc(-n2ccc3cc(C(=O)N4CCC(F)(F)CC4)cnc32)cc1 [MF-DH-409, 4-(5-(4,4-difluoropiperidine-1-carbonyl)-1H-pyrrolo[2,3-b]pyridin-1-yl)-N-(2-(methylsulfonamido)ethyl)benzamide] |
| 97% | < 100 nM | CS(=O)(=O)NC(=O)c1ccc(-n2ccc3cc(C(=O)N4CCC(F)(F)CC4)cnc32)cc1 [MF-DH-428, 4-(5-(4,4-difluoropiperidine-1-carbonyl)-1H-pyrrolo[2,3-b]pyridin-1-yl)-N-(methylsulfonyl)benzamide] |
| 103% | < 100 nM | O=C(c1cnc2c(ccn2-c2cccc(-c3nn[nH]n3)c2)c1)N1CCC(F)(F)CC1 [MF-DH-515, (1-(3-(2H-tetrazol-5-yl)phenyl)-1H-pyrrolo[2,3-b]pyridin-5-yl)(4,4-difluoropiperidin-1-yl)methanone] |
